From patent publication US11434255B2, “Nucleoside and nucleotide analogues bearing a quaternary all-carbon stereogenic center at the 2′ position and methods of use as a cardioprotective agent” (LCB PHARMA INC., priority 2016, dated 2022)
Where two headings read alike, the source gives them in different places.

How the values were obtained:
[1] = tested on: primary cardiomyocytes; experiment: TUNEL assay, primary cardiomyocytes treated with 3 μM Doxorubicin for 6 hours (Table 1); type: cell-based; conditions: Cardiomyocyte
Method: (§1) Primary cardiomyocyte monologues covered by serum free media (SF) were treated with DMSO (vehicle), Doxorubicin (DOX) (300 nM), Imatinib (Imat) (5 μM), and/or LCB2122 at varying concentrations (0.1, 0.5, 1.5 at 10 μM) diluted in SF for 3, 6, 18 or 24 hours. The TUNEL assay (Terminal Deoxynucleotidyltransferase mediated dUTP End Labeling) was utilized to detect apoptotic nuclei using an Apop Tag Red in Situ Apoptosis Detection Kit (Millipore, Temecula, Calif.). A Zeis fluorescent microscope was used for image acquisition. Cell counting was done using the Imager® Software.
The cardioprotective profile of LCB2122, LC2165, LCB2191 and LCB2177 were also investigated. As above, primary cardiomyocytes were treated with 3 μM of Doxorubicin for 6 hours alone or with the above compounds of the invention. The TUNEL assay was utilized to detect apoptotic nuclei. […] LCB2165, LCB2191 and LCB2177 were also active with IC50's of 5 μM.

[2] = tested on: wild type mice, DOX-induced toxicity; experiment: In vivo echocardiography in DOX-treated mice
Method: (§2) Mice were handled in accordance with institutional guidelines for animal care. Experiments were approved by the institutional Animal Care Committees and the investigation conforms with the Guide for the Care and Use of Laboratory Animals published by the US National Institutes of Health (NIH Publication N. 85-23, revised 1985). Doxorubicin treatment was a single ip injection of 5 or 15 mg/kg as previously described by Aries et al.^6 ALZET micro-osmotic pumps (Model 1002, 0.25 μl/hr, 14 days) were filled with DMSO, Ang II (0.5 μgKg/day) LCB2122 (2.0 or 2.8 μg/Kg/day) diluted in normal saline and inserted subcutaneously in mice for two weeks. M-mode echocardiography was performed using Visual-Sonics VEVO 2100 system and 30-MHz linear array transducer, on lightly anesthetized mice using […], 80 ml/min of 100% oxygen, as described by Aries et al. and echocardiographic indices were calculated as described by Yang et al.^17 Heart failure was defined as EF<45%.

[3] = tested on: primary cardiomyocytes; experiment: TUNEL assay, Imatinib-induced apoptosis in primary cardiomyocytes; type: cell-based; conditions: Cardiomyocyte, 6 hours, FIG. 6, read-out: EC50, prevention of apoptosis induced by Imatinib
Method: as §1

[4] = tested on: cardiomyocytes; experiment: Sarcomeric alpha-actinin immunofluorescence on cardiomyocytes; type: cell-based; conditions: 5 uM, six hours, FIG. 7
Method: Immunofluorescence were performed on cardiomyocytes as previously described,^16 using a sarcomeric alpha-Actinin antibody (1/500).
FIG. 7 is a micrograph showing α-actinin immunostaining (straight lines) of 2% PFA-fixed cardiomyocytes treated with a) vehicle (DMSO) or b) LCB2122 (5 uM) for six hours. […] White spots mark the nuclei.

[5] = tested on: atrial natriuretic factor (ANF); experiment: ANF ELISA on blood plasma of WT and AT1R mice; type: in vivo; conditions: 2.0 μg/Kg/day, 4 weeks, FIG. 13b
Method: FIG. 13b) quantification of an ANF ELISA assay done on blood plasma samples from vehicle and LCB2122 (2.0 μg/Kg/day, 4 weeks) treated WT and AT1R mice ventricles. Once again, the increase in ANF plasma levels was attenuated in the LCB2122 treated AT1R mice.

[6] = tested on: atrial natriuretic factor (ANF); experiment: ANF transcript QPCR on ventricles of WT and AT1R mice; type: in vivo; conditions: 2.0 μg/Kg/day, 4 weeks, FIG. 13a
From the text: The massive ANF upregulation seen in AT1R mice usually indicative of cardiac stress is attenuated in LCB2122 treated AT1R mice.

[7] = tested on: HepG2 human cancer cell line; experiment: Cell Titer Glo growth inhibition, DOX +/- LCB2122; type: cell-based
From the text: Indeed, the IC50 of DOX in HepG2 human cancer cell line was identical in the absence or presence of LCB2122. FIG. 8 is a plot representing the percent growth inhibition as measured by Cell Titer Glo assays done on HepG2 cells treated with varying concentrations of DOX+/−LCB-2122 ([…]).

[8] = tested on: primary cardiomyocytes; experiment: TUNEL assay, DOX-induced apoptosis in primary cardiomyocyte monolayers; type: cell-based
Method: as §1

[9] = tested on: AT1R mice; experiment: Echocardiography in AT1R transgenic (heart failure model) and wild-type mice; type: in vivo
Method: as §2
Transgenic mice overexpressing the human angiotensin II type 1 receptor^7 (AT1R) under the control of the mouse α-myosin heavy chain were generated. These mice are a model of human HF. Cardiomyocyte specific overexpression induced in basal conditions overtime, morphologic changes that mimic those observed during the development of cardiac hypertrophy in humans. In order words, these mice develop age-dependent HF.
All AT1R mice had EF % less than 40%, similar to HF patients in human. […] LCB2122 treated AT1R mice (2.0 μg/kg/day for 4 weeks) had their cardiac functions improved as opposed to untreated mice. […] The data shown are the individual values of each mouse at weeks 0 and 4. All WT mice had normal EF % independent of LCB2122 treatment throughout the study. All AT1R mice were in HF prior to any treatment.

[10] = tested on: heart cardiomyocytes; experiment: TUNEL assay on heart sections of DOX-treated mice; type: in vivo; conditions: after 2 weeks, FIG. 11
Method: as §2
After these 2 weeks, heart cardiomyocytes were also tested by TUNEL assay (on heart sections).

Molecule `CC(C)OP(=O)(OC[C@H]1O[C@@H](n2cnc3c(N)nc(Cl)nc32)[C@](C)(CO)[C@@H]1O)OC(C)C` [LCB2177, ((2R,3S,4R,5R)-5-(6-amino-2-chloro-9H-purin-9-yl)-3-hydroxy-4-(hydroxymethyl)-4-methyltetrahydrofuran-2-yl)methyl diisopropyl phosphate] has an IC50 ([1]; 3 μM Doxorubicin, 6 hours, TUNEL apoptotic nuclei, read-out: IC50) of 5 µM.
`COc1cccc2c1C(=O)c1c(O)c3c(c(O)c1C2=O)C[C@@](O)(C(=O)CO)C[C@@H]3O[C@H]1C[C@H](N)[C@H](O)[C@H](C)O1` [DOX, Doxorubicin, reference compound] was tested, and the “ejection fraction (EF, %) after DOX alone” value ([2]; mice, two weeks after DOX ip injection, FIG. 9) was “decreased significantly” and the “ventricular wall thickness after DOX alone” value ([2]; wild type mice, DOX (5 μg/kg) as printed) was “induced also a loss of ventricular wall thickness”.
Work on `C#CCOc1ccc(C(=O)c2ccc(C(=O)OC[C@]3(C)[C@H](O)[C@@H](COP(=O)(OCC)OCC)O[C@H]3n3cnc4c(N)nc(Cl)nc43)cc2)cc1` [LCB2191, ((2R,3R,4S,5R)-2-(6-amino-2-chloro-9H-purin-9-yl)-5-(((diethoxyphosphoryl)oxy)methyl)-4-hydroxy-3-methyltetrahydrofuran-3-yl)methyl 4-(4-(prop-2-yn-1-yloxy)benzoyl)benzoate] yielded an IC50 ([1]; 6 h) of 5 µM.
For `CCOP(=O)(OCC)OC[C@H]1O[C@@H](n2cnc3c(N)nc(Cl)nc32)[C@](C)(CO)[C@@H]1O` [LCB2122, ((2R,3S,4R,5R)-5-(6-amino-2-chloro-9H-purin-9-yl)-3-hydroxy-4-(hydroxymethyl)-4-methyltetrahydrofuran-2-yl)methyl diethyl phosphate], the EC50 [3] was 5 µM, the “cytoskeletal organization and cell size (α-actinin immunostaining)” value [4] was “does not alter cytoskeletal organization or cell size” and the “increase in ANF plasma levels” value [5] was “attenuated”. The IC50 ([1]; 6 h) was 1 µM, the “ANF transcript upregulation in ventricles” value [6] was “attenuated” and the “effect on antiproliferative effect of DOX” value ([7]; HepG2, DOX +/- LCB2122, FIG. 8) was “did not affect the antiproliferative effect of DOX”. For the same molecule, the “effect on HepG2 sensitivity to DOX” value ([7]; up to 4 μM LCB2122) was “no effect on HepG2 sensitivity to DOX”, the “ejection fraction (EF, %) after DOX” value ([2]; DOX ip, LCB2122 micropump for two weeks, FIG. 9) was “protected against DOX-induced toxicity” and the “left ventricle wall thickness after DOX” value ([2]; wild type mice, DOX, FIG. 10) was “protected against this DOX-induced wall thickness”. The EC50 ([8]; Cardiomyocyte, DOX 300 nM, TUNEL, FIG. 4, read-out: EC50, prevention of DOX-induced apoptotic cell death) was 0.5 µM, the “prevention of DOX-induced apoptotic cell death” value ([8]; DOX 300 nM, 6 hours, FIGS. 3 and 4) was “completely prevented DOX-induced apoptotic cell death” and the “DOX-induced apoptosis over time” value ([8]; DOX 300 nM, at 3, 6 or 24 hours) was “blocked”. For the same molecule, the “induction of apoptosis by the compound alone” value ([8]; time course, any time points, FIG. 5) was “did not induce apoptosis”, the “cardiac function (ejection fraction) in AT1R mice” value ([9]; 2.0 μg/kg per day for 4 weeks, FIG. 12) was “significant improvement of the cardiac function” and the “cardiac function of normal (WT) mice” value ([9]; 2.0 μg/kg/day for 4 weeks) was “did not alter cardiac function of normal mice”. For the same molecule, the “share of treated AT1R mice with EF % equal and above 40%” value ([9]; after four weeks of LCB2122) was 55% and the “apoptotic cardiomyocytes (TUNEL, heart sections)” value [10] was “significant decrease of apoptotic cardiomyocytes”.
With `CCOP(=O)(OCC)OC[C@H]1O[C@@H](n2cnc3c(N)nc(Cl)nc32)[C@](C)(COCc2ccccc2)[C@@H]1O` [LCB2165, ((2R,3S,4R,5R)-5-(6-amino-2-chloro-9H-purin-9-yl)-4-((benzyloxy)methyl)-3-hydroxy-4-methyltetrahydrofuran-2-yl)methyl diethyl phosphate] the IC50 ([1]; 6 h) was 5 µM.
